Patent US6916812B2, “Alpha-aminoamide derivatives as melanocortin agonists” (Bristol-Myers Squibb Company, priority 2001, dated 2005)
Like-named read-outs stand apart in the source and are kept apart here.

Target: T1, cloned human MC4R (Homo sapiens, UniProt P32245)
T1 construct: made in house; host or cells: Hi5 insect cells (baculovirus infection); membrane preparation
Assay: Membrane binding assay: competitive inhibition of [125I]NDP-α-MSH binding
Conditions: for inhibition at 10 µM: read-out: Displacement Rate (%) (at 10 μM); for IC50: read-out: MC4R IC50
Experimental: Hi5 cells are infected using the following protocol: Cells at a density of 1×10^6 cells/mL are spun down at 1000 rpm (Beckman GS-6KR centrifuge) for 10 minutes. Cells are resuspended in 10% of their original volume in a sterile 50 mL conical centrifuge tube wrapped with aluminum foil. Virus is added at a Multiplicity of Infection (MOI) of 3 and incubated for 1 hour at room temperature with gentle shaking. […] Cells are spun down in 50 mL conical centrifuge tubes at 1000 rpm for 10 minutes. Each of the resulting pellets are resuspended in 10 mL of cold (4° C.) membrane buffer (25 mM HEPES, pH 7.4, 140 mM NaCl, 1.2 mM MgCl2, 2.5 mM CaCl2, 10 μG/mL Aprotinin, 10 μG/mL Leupeptin) and Dounce homogenized using 10-12 strokes. […] The resulting pellet is resuspended in cold membrane buffer in a total of ¼ of the original volume by vortexing and aspiration using a syringe and 27 gauge needle. Protein content is determined (Bradford, Bio-Rad Protein Assay). Membranes are aliquoted in microcentrifuge tubes and quick frozen in liquid nitrogen. Store at −80° C. until use. The membrane binding buffer is composed of 25 mM HEPES, pH 7.4, 140 mM NaCl, 1.2 mM MgCl2, 2.5 mM CaCl2, 0.1% BSA. […] The mixture is filtered with Brandel Microplate 96 filter apparatus using 96-well GF/B filter presoaked in 1-% polyethyleneimine (Sigma). The filter is washed (4 times with a total of 1 mL per well) with cold wash buffer consisting of 20 mM HEPES, pH 7.4, 5 mM MgCl2. […] 100 μl of Wallac Optiphase Supermix scintillation fluid is added to each well. The top is sealed and the plates are shaken to insure that the filters are thoroughly soaked with fluid. […] Dose-response curves are fitted by […] analyses and IC50 values are calculated using ExcelFit.

[1] = at 10 μM, [125I]NDP-α-MSH displacement

T1 sequence (P32245 whole entry): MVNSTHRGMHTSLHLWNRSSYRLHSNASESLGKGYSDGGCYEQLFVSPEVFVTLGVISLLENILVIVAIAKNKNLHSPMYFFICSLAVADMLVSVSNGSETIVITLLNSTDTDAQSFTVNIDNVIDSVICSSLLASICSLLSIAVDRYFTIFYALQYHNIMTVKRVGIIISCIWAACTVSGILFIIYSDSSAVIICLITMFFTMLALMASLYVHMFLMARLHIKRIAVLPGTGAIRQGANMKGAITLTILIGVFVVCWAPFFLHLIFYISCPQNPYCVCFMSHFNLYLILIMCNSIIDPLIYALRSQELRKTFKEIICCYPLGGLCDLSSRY

Compound | inhibition at 10 µM [1] | IC50 | Displacement Rate (%) (at 10 μM) [1] | inhibition at 10 µM
N[C@@H](Cc1ccc(OCc2ccccc2)cc1)C(=O)N1CCN(Cc2ccc(N(c3ccccc3)c3ccccc3)cc2)CC1 [Example 91] | 91 to 100% | < 1.5 µM |  | 
N[C@@H](Cc1ccc(OCc2ccccc2)cc1)C(=O)N1CCCN(Cc2ccc(C(F)(F)F)cc2F)CC1 [Example 28] | 71 to 90% | > 3 µM |  | 
N[C@@H](Cc1ccc(OCc2ccc(C(F)(F)F)cc2)cc1)C(=O)N1CCN(Cc2cccc(Cl)c2Cl)CC1 [Example 181] |  | < 1.5 µM | +++ (+++ = 91-100) | 
N[C@@H](Cc1ccc(OCc2ccccc2)cc1)C(=O)N1CCCN(Cc2ccc(OCc3ccccc3)cc2)CC1 [Example 13] | 91 to 100% | 1.5 to 3 µM |  | 
N[C@@H](Cc1ccc(OCc2ccccc2)cc1)C(=O)N1CCN(C2CCCC2)CC1 [Example 158] | 35 to 70% | > 3 µM |  | 
CC1CCC(N2CCCN(C(=O)[C@@H](N)Cc3ccc(OCc4ccccc4)cc3)CC2)CC1 (stereo partly shown) [Example 74] | 35 to 70% | > 3 µM |  | 
CSc1ccc(CN2CCN(C(=O)[C@@H](N)Cc3ccc(OCc4ccccc4)cc3)CC2)cc1 [Example 125] | 71 to 90% | 1.5 to 3 µM |  | 
N[C@@H](Cc1ccc(OCc2ccccc2)cc1)C(=O)N1CCN(Cc2cc(C(F)(F)F)cc(C(F)(F)F)c2)CC1 [Example 101] | 91 to 100% | < 1.5 µM |  | 
N[C@@H](Cc1ccc(OCc2ccccc2)cc1)C(=O)N1CCN(Cc2ccc(Cl)cc2Cl)CC1 [Example 119] | 71 to 90% | > 3 µM |  | 
N[C@@H](Cc1ccc(OCc2ccccc2)cc1)C(=O)N1CCN(C2CCN(CCc3ccccc3)CC2)CC1 [Example 139] | 35 to 70% | 1.5 to 3 µM |  | 
CCCCc1ccc(CN2CCN(C(=O)[C@@H](N)Cc3ccc(OCc4ccccc4)cc3)CC2)cc1 [Example 96] | 91 to 100% | < 1.5 µM |  | 
N[C@@H](Cc1ccc(OCc2ccccc2)cc1)C(=O)N1CCCN(C2CCc3ccccc3C2)CC1 (stereo partly shown) [Example 30] |  | > 3 µM |  | 71 to 90%
N[C@@H](Cc1ccc(OCc2ccccc2)cc1)C(=O)N1CCCN(Cc2cc([N+](=O)[O-])ccc2Cl)CC1 [Example 34] |  | > 3 µM |  | 71 to 90%
CC(C)(C)c1ccc(Oc2cccc(CN3CCN(C(=O)[C@@H](N)Cc4ccc(OCc5ccccc5)cc4)CC3)c2)cc1 [Example 80] | 91 to 100% | < 1.5 µM |  | 
CCCCCCCCOc1ccc(CN2CCCN(C(=O)[C@@H](N)Cc3ccc(OCc4ccccc4)cc3)CC2)cc1 [Example 14] | 91 to 100% | < 1.5 µM |  | 
N[C@@H](Cc1ccc(OCc2ccccc2)cc1)C(=O)N1CCCN(Cc2ccc(-c3cccc([N+](=O)[O-])c3)o2)CC1 [Example 21] | 91 to 100% | 1.5 to 3 µM |  | 
N[C@@H](Cc1ccc(OCc2ccccc2)cc1)C(=O)N1CCN(Cc2cccc([N+](=O)[O-])c2)CC1 [Example 152] | 35 to 70% | > 3 µM |  | 
N[C@@H](Cc1ccc(OCc2ccccc2)cc1)C(=O)N1CCCN(Cc2ccccc2Cl)CC1 [Example 57] | 35 to 70% | > 3 µM |  | 
N[C@@H](Cc1ccc(OCc2ccccc2)cc1)C(=O)N1CCN(Cc2ccccc2Sc2ccc(Cl)cc2)CC1 [Example 82] | 91 to 100% | < 1.5 µM |  | 
CC(Cc1cccc(C(F)(F)F)c1)N1CCCN(C(=O)[C@@H](N)Cc2ccc(OCc3ccccc3)cc2)CC1 (stereo partly shown) [Example 44] | 71 to 90% | 1.5 to 3 µM |  | 
CC(C)(C)c1cc(CN2CCN(C(=O)[C@@H](N)Cc3ccc(OCc4ccccc4)cc3)CC2)cc(C(C)(C)C)c1O [Example 92] | 91 to 100% | < 1.5 µM |  | 
N[C@@H](Cc1ccc(OCc2ccccc2)cc1)C(=O)N1CCN(Cc2ccc3c(c2)OCCO3)CC1 [Example 156] | 35 to 70% | > 3 µM |  | 
N[C@@H](Cc1ccc(OCc2ccccc2)cc1)C(=O)N1CCN(Cc2cc3c(cc2Cl)OCO3)CC1 [Example 124] |  | > 3 µM |  | 71 to 90%
COc1cc(CN2CCCN(C(=O)[C@@H](N)Cc3ccc(OCc4ccccc4)cc3)CC2)ccc1OCc1ccccc1 [Example 29] | 71 to 90% | 1.5 to 3 µM |  | 
N[C@@H](Cc1ccc(OCc2ccccc2)cc1)C(=O)N1CCCN(Cc2ccc3c(c2)Cc2ccccc2-3)CC1 [Example 10] | 91 to 100% | 1.5 to 3 µM |  | 
N[C@@H](Cc1ccc(OCc2ccccc2)cc1)C(=O)N1CCN(Cc2ccc(Br)cc2)CC1 [Example 129] | 35 to 70% | > 3 µM |  | 
COc1cc(CN2CCCN(C(=O)[C@@H](N)Cc3ccc(OCc4ccccc4)cc3)CC2)ccc1OCc1ccc([N+](=O)[O-])cc1 [Example 15] | 91 to 100% | 1.5 to 3 µM |  | 
CCn1c2ccccc2c2cc(CN3CCN(C(=O)[C@@H](N)Cc4ccc(OCc5ccccc5)cc4)CC3)ccc21 [Example 89] | 91 to 100% | < 1.5 µM |  | 
CN(C)CCN[C@@H](Cc1ccc(OCc2ccccc2)cc1)C(=O)N1CCN(Cc2cccc(Cl)c2Cl)CC1 [Example 175] | 91 to 100% | < 1.5 µM |  | 
N[C@@H](Cc1ccc(OCc2ccccc2)cc1)C(=O)N1CCCN(Cc2c3ccccc3cc3ccccc23)CC1 [Example 20] |  | > 3 µM |  | 91 to 100%

Second part, led by results:

inhibition at 10 µM [1] | IC50 | Displacement Rate (%) (at 10 μM) [1] | Compound | inhibition at 10 µM
 | > 3 µM | ++ (++ = 71-90) | COc1ccc(OC)c(COc2ccc(C[C@H](N)C(=O)N3CCN(Cc4cccc(Cl)c4Cl)CC3)cc2)c1 [Example 227] | 
91 to 100% | < 1.5 µM |  | N[C@@H](Cc1ccc(-c2cccc3ccccc23)cc1)C(=O)N1CCN(Cc2cccc(Cl)c2Cl)CC1 [Example 300] | 
91 to 100% | < 1.5 µM |  | CCOc1ccc(-c2ccc(C[C@H](N)C(=O)N3CCN(Cc4cccc(Cl)c4Cl)CC3)cc2)cc1 [Example 310] | 
 | 1.5 to 3 µM | +++ (+++ = 91-100) | N[C@@H](Cc1ccc(OCCc2cccc([N+](=O)[O-])c2)cc1)C(=O)N1CCN(Cc2cccc(Cl)c2Cl)CC1 [Example 257] | 
 | 1.5 to 3 µM | +++ (+++ = 91-100) | N[C@@H](Cc1ccc(OCc2c(F)cccc2F)cc1)C(=O)N1CCN(Cc2cccc(Cl)c2Cl)CC1 [Example 205] | 
 | < 1.5 µM | +++ (+++ = 91-100) | N[C@@H](Cc1ccc(OCCc2ccccc2-c2ccccc2)cc1)C(=O)N1CCN(Cc2cccc(Cl)c2Cl)CC1 [Example 253] | 
91 to 100% | 1.5 to 3 µM |  | N[C@@H](Cc1ccc(-c2cc(Cl)cc(Cl)c2)cc1)C(=O)N1CCN(Cc2cccc(Cl)c2Cl)CC1 [Example 312] | 
91 to 100% | < 1.5 µM |  | N[C@@H](Cc1ccc(-c2cccc(Cl)c2)cc1)C(=O)N1CCN(Cc2cccc(Cl)c2Cl)CC1 [Example 301] | 
91 to 100% | < 1.5 µM |  | N[C@@H](Cc1ccc(-c2ccccc2F)cc1)C(=O)N1CCN(Cc2cccc(Cl)c2Cl)CC1 [Example 309] | 
91 to 100% | < 1.5 µM |  | N[C@@H](Cc1ccc(-c2ccc3ccccc3c2)cc1)C(=O)N1CCN(Cc2cccc(Cl)c2Cl)CC1 [Example 293] | 
 | 1.5 to 3 µM | +++ (+++ = 91-100) | COc1ccc(OC)c(-c2ccc(C[C@H](N)C(=O)N3CCN(Cc4cccc(Cl)c4Cl)CC3)cc2)c1 [Example 320] | 
91 to 100% | 1.5 to 3 µM |  | Cc1ccccc1-c1ccc(C[C@H](N)C(=O)N2CCN(Cc3cccc(Cl)c3Cl)CC2)cc1 [Example 313] | 
 | < 1.5 µM | +++ (+++ = 91-100) | CCCCc1ccc(COc2ccc(C[C@H](N)C(=O)N3CCN(Cc4cccc(Cl)c4Cl)CC3)cc2)cc1 [Example 184] | 
 | < 1.5 µM |  | Cc1ccc(Oc2ccc(C[C@H](N)C(=O)N3CCN(Cc4cccc(Cl)c4Cl)CC3)cc2)cc1 [Example 345] | 
 | < 1.5 µM | +++ (+++ = 91-100) | N[C@@H](Cc1ccc(OCc2ccc3ccccc3c2)cc1)C(=O)N1CCN(Cc2cccc(Cl)c2Cl)CC1 [Example 217] | 
 | > 3 µM | ++ (++ = 71-90) | COc1ccccc1COc1ccc(C[C@H](N)C(=O)N2CCN(Cc3cccc(Cl)c3Cl)CC2)cc1 [Example 231] | 
 | 1.5 to 3 µM | +++ (+++ = 91-100) | N[C@@H](Cc1ccc(OCc2cccc3ccccc23)cc1)C(=O)N1CCN(Cc2cccc(Cl)c2Cl)CC1 [Example 218] | 
 | < 1.5 µM |  | N[C@@H](Cc1ccc(-c2cccc3c2Sc2ccccc2O3)cc1)C(=O)N1CCN(Cc2cccc(Cl)c2Cl)CC1 [Example 335] | 91 to 100%
 | > 3 µM |  | COc1ccc(-c2ccc(C[C@H](N)C(=O)N3CCN(Cc4cccc(Cl)c4Cl)CC3)cc2)cn1 [Example 343] | 35 to 70%
